Test results published in US11964943B2, “3,5-diarylidenyl-n-substituted-piperid-4-one-derived inhibitors of Stat3 pathway activity and uses thereof” (priority 2017, dated 2024).
“And” between values parts separate entries of the source, which are not always exact repeats. Equal entries are not always repeated.

Experiments:
[1] = test system: HCT116-oxaliplatin resistant and A2780-cisplatin resistant cells; experiment: 2D monolayer cytotoxicity in platinum-resistant cells; format: cell-based; details: compared with HO-3867, atovaquone, curcumin and stattic
Method: MIT assay. Individual drug treatments and combinations were carried out as with the SRB assay. The MTT assay was carried out as previously (see Cytotoxicity studies sections) with the difference that it was completed in 96 h.

[2] = test system: A549 cells; experiment: SRB growth inhibition and combination index with cisplatin, A549; format: cell-based, human
Method: The affected fractions were calculated from the SRB or MTT assay absorbance values and were registered to derive the respective CI values and isobolograms. A CI value of less than 1 (one) indicates synergy.
(§1) The SRB assay was used to assess cell growth inhibition by IE-8 alone and in combination with cisplatin. […] For combination studies drug treatments were sequential with IE-8 applied first followed by cisplatin for 1 h. […] Absorbance was read at 540 nm and results were normalized to untreated controls. For analysis of GC50 values and statistical significance, non-linear regression analysis with a comparison of fits was performed with the GraphPad Prism 6.0 software.
as §1, with “Drug Combination studies. Sulforhodamine B (SRB) Cell Growth Inhibition Assay. The” for “The”, “8 h” for “IE-8”

[3] = test system: HT1080 fibrosarcoma spheroids; experiment: Spheroid invasion assay; format: cell-based; details: 3 μM, 90 h observation
Method: Multicellular spheroids from HT-1080 cells were grown for 4 days in RPMI 1640 medium in 96-well plates (Nunclon Sphera, Thermo Fisher) and their size was measured with an inverted microscope (Olympus CKX41, 4× objective) and Cell^F software. […] Growth factor reduced Matrigel (Becton Dickinson) was thawed on ice and diluted in 4° C. cold medium to a final concentration of 300 μg/mL with or without IE-8. One hundred fifty microliter of these solutions were added to the wells containing spheroids in 50 μL medium. The plate was incubated in a humidified atmosphere with 5% CO2 in air at 37° C. Both untreated and treated spheroids were monitored simultaneously with a JuliBr live cell analyzer (NanoEntek) for 90 h to visualize spheroid invasion, and every hour the relative cross-sectional area of the spheroids was measured.

[4] = test system: DU145 cells; experiment: Colony formation assay with paclitaxel; format: cell-based; details: 0.4 μM IE-8 + 0.003 μM paclitaxel, 10 days
Method: DU145 cells were seeded at 1000 cells/well in 6-well plates and allowed to adhere overnight. Cells were treated after seeding with IE-8, paclitaxel, and a combination thereof, and incubated without any further manipulation for 10 days until the control (untreated) wells had <200 colonies formed. Colonies were fixed with ice-cold 100% Methanol, washed with PBS, stained with crystal violet (0.5% w/v) for 5 minutes and counted using a colony-counting function of the Fusion 15.12 software.

[5] = test system: A2780-cisplatin resistant spheroids; experiment: Spheroid diameter measurement; format: cell-based; details: for Diameter (μm): 96 h
Method: (§2) For cell spheroid formation, HCT116-oxaliplatin resistant cells, A2780-cisplatin resistant cells, and HT1080 cells were seeded in Corning® Spheroid opaque-walled 96 well Microplates (ultra-low attachment; Nuclon™ Sphera™, Thermofisher) at densities of 2000 cells/well in 100 μl of cell solution and allowed to grow for 4 days, before any manipulation.
The diameters of spheroid cells were determined using Cell^F Imaging Software. A diameter corresponds to the mean value of one horizontal and one vertical measurement.

[6] = test system: DU145 cells; experiment: SRB growth inhibition assay for radiosensitization; format: cell-based; details: 18 h pretreatment, then irradiation
Method: Stock cultures were trypsinised and 2500 cells were seeded into each well of 96-well, flat-bottomed microtiter plates, in a volume of 200 μl and left to adhere overnight at 37° C. The desired concentrations of IE-8 or curcumin were prepared in culture medium immediately before use. Medium in wells was removed and 200 μl of drug medium mixture was added. Three replicates were used for each drug concentration. One solvent control lane was included in each experiment. Plates were incubated for 18 h at 37° C. At the end of the drug treatment, the media was replaced with 200 μl of fresh media. Subsequently the plates were irradiated at 0, 2, 4 and 6 Gy. The plates were incubated for three days in a humidified incubator at 37° C. with 5% CO2. The media in the wells was removed and 100 μl of ice-cold 10% (wt/vol) trichloroethanoic acid (TCA) was added per well, to fix the cells. […] Plates were left at room temperature for 20 minutes, and the optical density (OD) at 540 nm was determined using a microplate reader (Thermo). Growth inhibition was expressed as the fraction of control A540 (surviving fraction) and calculated from the following equation; fraction of control A540=OD of untreated control at each radiation dose. The mean surviving fraction for each drug concentration for each radiation dose was calculated.

[7] = test system: A2780-cisplatin resistant spheroids; experiment: CellTiter-Glo 3D cell viability assay, A2780-cisplatin resistant spheroids; format: cell-based; details: 96 h exposure, 3D CellTiter-Glo
Method: as §2
At the end of drug incubation, both the plates and the CellTitre-Glo® reagent (previously thawn overnight in the fridge) were equilibrated at room temperature for at least 30 min. Subsequently, 100 μl of cell solution were carefully removed from each well, without disrupting the spheroid and equal volume of CellTitre-Glo® reagent was added. Cell lysis was performed by vigorously shaking the plate for 5 min. To stabilize the luminescent signal, the plate was incubated in the dark at RT for another 30 min before luminescence was recorded on a plate reader. The cell viability of treated samples was normalised to the untreated controls.
The cytotoxicity studies in spheroids were conducted using the CellTiter-Glo® 3D Cell viability assay (Promega) following the instructions of the manufacturer.

| Compound | cytotoxicity relative to other Stat3 inhibitors [1] | combination index (CI) with cisplatin ([2]; 10 μM IE-8 1 h then cisplatin 1 h) | combination index (CI) with cisplatin ([2]; IE-8 18 h then cisplatin 1 h, fixed ratio 1:50) | rate of confluence (invasion) of spheroids in matrigel [3] | colony formation [4] | spheroid size ([5]; 10 μM IE-8, 96 hours) | Diameter (μm) ([5]; IE-8 1.0 μM) | Diameter (μm) ([5]; IE-8 2.0 μM) | Diameter (μm) ([5]; IE-8 3.0 μM) | Diameter (μm) ([5]; IE-8 4.0 μM) | Diameter (μm) ([5]; IE-8 5.0 μM) | radiosensitization (cell survival, SRB) [6] | IC50 [7] |
| --- | --- | --- | --- | --- | --- | --- | --- | --- | --- | --- | --- | --- | --- |
| 3,5-Di(3,4,5-trimethoxybenzylidene)-1-phenylpiperidin-4-one [IE-8] | more cytotoxic than the other tested inhibitors | – | – | – | – | – | – | – | – | – | – | – | – |
| COc1cc(/C=C2\CN(c3ccccc3)C/C(=C\c3cc(OC)c(OC)c(OC)c3)C2=O)cc(OC)c1OC [IE-8, 3,5-Di(3,4,5-trimethoxybenzylidene)-1-phenylpiperidin-4-one] | – | below 1 | below 1 | markedly reduced and also delayed | no colonies were formed | markedly decreases the size of the spheroid | 1176.0 μm | 1037.0 μm | 990.9 μm | 820 μm and 819.7 μm | 619.8 μm | more efficient at reducing cell survival | 3.01 ± 0.41 µM |
